Assays:
[1] = tested on: low-birth-weight suckling piglets; test: Arginine supplementation: growth performance of low-birth-weight suckling piglets; type: in vivo; conditions: 0.04% arginine in feed vs without
Description: (§1) Three-day-old suckling piglets with low birth weight were used as experimental animals. They were randomly divided into two treatments, fed with 0.04% and without arginine feed. Each treatment had 8 replicates, and each replicate had 1 piglet. The test period was 21 days to investigate the growth performance of piglets.

[2] = tested on: low-birth-weight suckling piglets; test: Arginine supplementation: serum antioxidant enzyme activity and MDA content; type: in vivo; conditions: 0.04% arginine in feed vs without
Description: as §1, with “days. After the test, the piglet serum was collected” for “days”, “antioxidant capacity” for “growth performance”, “the piglet serum.” for “piglets.”

N=C(N)NCCC[C@H](N)C(=O)O [Arginine Group, arginine]
significantly improve: daily gain of weak piglets (in words) [1] | feed intake of weak piglets (in words) [1] | antioxidant capacity of weak piglets (in words) [2]
